Source: patent US7056734B1, “Differentiation of non-insulin producing cells into insulin producing cells by GLP-1 or exendin-4 and uses thereof” (The United States of America as represented by the …, priority 1998, dated 2006)

What was measured:
insulin mRNA = experiment: Slot-blot quantitation of insulin mRNA in pancreata and islets; type: in vivo, rat; conditions: young and old animals, 48 hrs infusion, P<0.01
Description: (§1) The rats were implanted with an Alzet micro-osmotic pump (Alza Corp., Palo Alto, Calif.) in the interscapular region for 48 hrs. […] Control animals received normal saline in their pumps and received their infusion for the same length of time.
(§2) After an overnight fast, animals were sacrificed, pancreata were removed and frozen in liquid nitrogen as quickly as possible. RNA was extracted by homogenization in guanidinium isothiocyanate, followed by ultracentrifugation on a 5.7 M cesium chloride cushion (Glisin et al., 1974; Chigwin et al., 1979). Poly-A RNA was then prepared from total RNA by affinity chromatography using oligo (dT) columns (Biolabs INC, Beverly, Mass.). RNA was quantified by spectrophotometric analysis at […]. Slot-blot analysis using poly-A RNA was used for quantitation of mRNA levels of glucokinase, which is the main glucose sensor of the beta cell (Matschinsky, 1990), the three hexokinases, GLUT2, the major glucose transporter of the beta cell (Mueckler, 1990), and insulin. Four micrograms of poly-A RNA were diluted in 50 μl TE buffer (Tris-HCL 10 mM, EDTA 1 mM, pH 7.4), 20 μl of 37% formaldehyde and 20 μl of 10× SSC. Samples were incubated at 60° C. for 15 min and then diluted with 1 ml of ice-cold 10× SSC (1×SCC=0.15 M NaCl+0.015 sodium citrate). […]

glucokinase mRNA = experiment: Slot-blot quantitation of glucokinase mRNA in pancreata and islets; type: in vivo, rat; conditions: young (P<0.05), much more so in old animals (P<0.001)
Description: as §1, §2

AR42J cells = experiment: RT-PCR of insulin and glucagon mRNA in AR42J cells; type: cell-based, rat
Experimental: Reverse-transcription polymerase chain reaction (RT-PCR). Total RNA was isolated from treated AR42J cells by the methods of Chomczynski and Sacchi (1987). The total RNA samples were pretreated with DNAse in 20 mM Tris-HCL (pH 8.4), 2 mM MgCl2 and 50 mM KCl to remove any traces of contaminating genomic DNA. RT-PCR was undertaken in a volume of 50 μl of buffer containing 50 mM KCl, 10 mM Tris-HCl, 3.5 mM MgCl2, 200 μM each dNTPs, 0.4 μM each of sense and antisense primers to rat insulin I and II (insulin sense primer=5′[…]3′; insulin antisense primer=5′[…] 3′). Amplification was undertaken for 25 cycles at denaturing temperature 94° C. for 1 min, annealing temperature 60° C. for 45 sec and an extension temperature 72° C. for 1 min. mRNA from RIN 1046-38 cells were used as a positive control. In the case of glucagon RT-PCR, the denaturing and extension temperature was similar to insulin except the annealing temperature was 65° C. for 1 min (glucagon sense primer=5′ […]3′; antisense primer=5′ […]3′). The RT-PCR products were visualized by ethidium bromide staining on 2% agarose gels.

[1] = system: diabetic mice (C57BLKS/J-Lepr^db/Lepr^db); experiment: Daily ip exendin-4 in diabetic mice; type: in vivo, mouse
Description: Animals. Four month old Wistar rats from the Wistar colony in the NIA (Baltimore, Md.) were used for the acute experiments of the effects of exendin-4 and GLP-1 (see Example 1). They had been maintained on standard lab chow and fed ad libitum. For the long-term experiments, diabetic mice (C57BLKS/J-Lepr^db/Lepr^db) lacking the leptin receptor, and their non-diabetic littermates were purchased at 4 weeks of age from Jackson Laboratories (Bar Harbor, Me.). They were housed two per cage and also were fed ad libitum. The same mice were caged together for the duration of the study. Wistar rats are caged on wire while the bedding for the mice was a paper based product, “Carefresh” (Absorption Co., Bellingham, Wash.).
Subsequently, whole blood glucose levels, taken from a retro-orbital sinus, were determined in the mice using a Glucometer Elite (Bayer). This regimen was continued for 12–13 weeks. […] Animals were weighed weekly. After one week of the regimen blood samples were again taken from a retro-orbital sinus for determination of insulin and glucose levels. At the end of the regimen, fasting blood samples were obtained for glucose and insulin levels and whole blood containing EDTA was assayed for hemoglobin A1c (Hb A1c) on the same day from the four groups.
(§3) Assays. Plasma glucose was measured by the glucose oxidase method (Wang et al., 1997). Insulin was measured by RIA as previously described (See Example 1). Hb A1c was assayed using a BIO-RAD (Herculas Calif.) DiaSTAT machine which uses low pressure cation exchange chromatography in conjunction with gradient elution to separate hemoglobin subtypes and variants from hemolyzed blood. The separated hemoglobin fractions were monitored by means of absorption of light at 415 nm.

diabetic mice = experiment: Five-day daily ip exendin-4 in 14 weeks old diabetic mice; type: in vivo, mouse; conditions: 24 nmol/kg ip daily
Experimental: In another group of eight diabetic mice 14 weeks old we gave 24 nmol/kg exendin-4 ip daily and NaCl ip daily for five days to four each of the group.
as §3

Compound | insulin mRNA vs controls (insulin mRNA) | glucokinase mRNA levels (glucokinase mRNA) | rat insulin I and II mRNA by RT-PCR (AR42J cells; GLP-1-treated for 3 days, none in non-treated cells) | glucagon mRNA at 236 bp by RT-PCR (AR42J cells; GLP-1-treated, 48 h) | blood sugar lowering at lower concentration compared with larger amount ([1]; 1 nmol/kg ip for one week, diabetic mice) | weight of the animal for the first 3–4 days of injection ([1]; back to same as NaCl-treated by the seventh day) | cage bedding 24 hours after changing vs NaCl-treated diabetic animals (urination) ([1]; diabetic mice, 9 weeks treatment) | fasting glucose levels ([1]; diabetic mice, 12–13 weeks, NaCl 517±59, p<0.005) | fasting insulin levels ([1]; diabetic mice, 12–13 weeks, NaCl 707.2±169.7, p<0.02) | Hb A1c ([1]; diabetic mice, daily ip for 12–13 weeks, NaCl-treated 8.8%, p<0.0001) | fasting glucose level after one week of treatment ([1]; diabetic mice, daily ip, NaCl-treated 238±51, p<0.002) | deaths just after receiving exendin-4 ([1]; diabetic mice, day fourteen) | fasting insulin levels after one week vs NaCl ([1]; diabetic mice, p<0.002) | body weight at 13–14 weeks of treatment ([1]; diabetic mice, NaCl-treated 38.7 g) | effects of the daily injections on behavior ([1]; long-term daily ip) | blood sugars after five days (diabetic mice; NaCl-treated 640±37) | insulin levels after five days (diabetic mice; NaCl-treated 1,072±54)
CC[C@H](C)[C@H](NC(=O)[C@H](Cc1ccccc1)NC(=O)[C@H](CCC(=O)O)NC(=O)[C@H](CCCCN)NC(=O)[C@H](C)NC(=O)[C@H](C)NC(=O)[C@H](CCC(N)=O)NC(=O)CNC(=O)[C@H](CCC(=O)O)NC(=O)[C@H](CC(C)C)NC(=O)[C@H](Cc1ccc(O)cc1)NC(=O)[C@H](CO)NC(=O)[C@H](CO)NC(=O)[C@@H](NC(=O)[C@H](CC(=O)O)NC(=O)[C@H](CO)NC(=O)[C@@H](NC(=O)[C@H](Cc1ccccc1)NC(=O)[C@@H](NC(=O)CNC(=O)[C@H](CCC(=O)O)NC(=O)[C@H](C)NC(=O)[C@@H](N)Cc1c[nH]cn1)[C@@H](C)O)[C@@H](C)O)C(C)C)C(=O)N[C@@H](C)C(=O)N[C@@H](Cc1c[nH]c2ccccc12)C(=O)N[C@@H](CC(C)C)C(=O)N[C@H](C(=O)N[C@@H](CCCCN)C(=O)NCC(=O)N[C@@H](CCCNC(=N)N)C(N)=O)C(C)C [GLP-1] | increased | significantly increased | demonstrated a 187 bp rat insulin I and II mRNA | detected | – | – | – | – | – | – | – | – | – | – | – | – | –
exendin-4 | – | – | – | – | just as effective | drops | obviously drier | 278.7 ± 30.0 mg/dL | 4,600±1,114 pmol/l | 4.7% | 90 ± 11 mg/dL | one of the diabetic mice died | higher | 46.7 g | no untoward effects | 355 ± 21 mg/dL | 6,904±705 pmol/l
